Laboratory results reported in PubChem BioAssay (NCI).
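GI50 is the concentration that inhibits growth by half. TGI: concentration producing complete growth inhibition.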

What was measured:
Test in all cases: NCI-60 cell line screen, 384-well format
K-562 leukemia = system: K-562 leukemia
HCT-15 colon = system: HCT-15 colon
SK-MEL-28 melanoma = system: SK-MEL-28 melanoma
BT-549 breast = system: BT-549 breast
SR leukemia = system: SR leukemia
SNB-19 CNS = system: SNB-19 CNS
SNB-75 CNS = system: SNB-75 CNS
SN12C renal = system: SN12C renal
ACHN renal = system: ACHN renal
KM12 colon = system: KM12 colon
NCI-H226 lung = system: NCI-H226 lung
HOP-62 NSCLC = system: HOP-62 NSCLC
UACC-257 melanoma = system: UACC-257 melanoma
SF-539 CNS = system: SF-539 CNS
TK-10 renal = system: TK-10 renal
UACC-62 melanoma = system: UACC-62 melanoma
CAKI-1 renal = system: CAKI-1 renal
EKVX NSCLC = system: EKVX NSCLC
NCI-H23 lung = system: NCI-H23 lung
UO-31 renal = system: UO-31 renal
SW-620 colon = system: SW-620 colon
OVCAR-3 ovarian = system: OVCAR-3 ovarian
OVCAR-4 ovarian = system: OVCAR-4 ovarian
HT29 colon = system: HT29 colon
NCI-H522 lung = system: NCI-H522 lung
U251 glioblastoma = system: U251 glioblastoma
OVCAR-5 ovarian = system: OVCAR-5 ovarian
SK-OV-3 ovarian = system: SK-OV-3 ovarian
SK-MEL-5 melanoma = system: SK-MEL-5 melanoma
NCI-H460 NSCLC = system: NCI-H460 NSCLC
HL-60(TB) leukemia = system: HL-60(TB) leukemia
HCC-2998 colon = system: HCC-2998 colon
M14 melanoma = system: M14 melanoma
HCT-116 colon = system: HCT-116 colon
A549 NSCLC = system: A549 NSCLC
NCI-H322M lung = system: NCI-H322M lung
MALME-3M melanoma = system: MALME-3M melanoma
COLO 205 colon = system: COLO 205 colon
SK-MEL-2 melanoma = system: SK-MEL-2 melanoma
NCI/ADR-RES ovarian = system: NCI/ADR-RES ovarian
RPMI-8226 leukemia = system: RPMI-8226 leukemia
SF-295 CNS = system: SF-295 CNS
MCF7 breast = system: MCF7 breast
MDA-MB-231 breast = system: MDA-MB-231 breast
T-47D breast = system: T-47D breast
IGROV1 ovarian = system: IGROV1 ovarian
PC-3 prostate = system: PC-3 prostate
HOP-92 NSCLC = system: HOP-92 NSCLC
RXF 393 renal = system: RXF 393 renal
SF-268 CNS = system: SF-268 CNS
MOLT-4 leukemia = system: MOLT-4 leukemia
DU-145 prostate = system: DU-145 prostate
CCRF-CEM leukemia = system: CCRF-CEM leukemia
786-0 renal = system: 786-0 renal
MDA-MB-468 breast = system: MDA-MB-468 breast
LOX IMVI melanoma = system: LOX IMVI melanoma
MDA-MB-435 melanoma = system: MDA-MB-435 melanoma
A498 renal = system: A498 renal
HS 578T breast = system: HS 578T breast

`C[C@@H](N)C1CCC(C(=O)Nc2ccncc2)CC1` (stereo partly drawn) was tested, and the GI50 (K-562 leukemia) was 39.9 µM, the TGI (K-562 leukemia) was > 100 µM and the GI50 (HCT-15 colon) was > 100 µM. For the same compound, the TGI (HCT-15 colon) was > 100 µM, the GI50 (SK-MEL-28 melanoma) was > 100 µM and the TGI (SK-MEL-28 melanoma) was > 100 µM. For the same compound, the GI50 (BT-549 breast) was 25.9 µM, the TGI (BT-549 breast) was > 100 µM and the GI50 (SR leukemia) was 7.94 µM. For the same compound, the TGI (SR leukemia) was 21.9 µM, the GI50 (SNB-19 CNS) was > 100 µM and the TGI (SNB-19 CNS) was > 100 µM. The GI50 (SNB-75 CNS) was 55.9 µM, the TGI (SNB-75 CNS) was > 100 µM and the GI50 (SN12C renal) was > 100 µM. The TGI (SN12C renal) was > 100 µM, the GI50 (ACHN renal) was > 100 µM and the TGI (ACHN renal) was > 100 µM. For the same compound, the GI50 (KM12 colon) was > 100 µM, the TGI (KM12 colon) was > 100 µM and the GI50 (NCI-H226 lung) was > 100 µM. For the same compound, the TGI (NCI-H226 lung) was > 100 µM, the GI50 (HOP-62 NSCLC) was 77.4 µM and the TGI (HOP-62 NSCLC) was > 100 µM. The GI50 (UACC-257 melanoma) was > 100 µM, the TGI (UACC-257 melanoma) was > 100 µM and the GI50 (SF-539 CNS) was > 100 µM. For the same compound, the TGI (SF-539 CNS) was > 100 µM, the GI50 (TK-10 renal) was > 100 µM and the TGI (TK-10 renal) was > 100 µM. The GI50 (UACC-62 melanoma) was > 100 µM, the TGI (UACC-62 melanoma) was > 100 µM and the GI50 (CAKI-1 renal) was > 100 µM. For the same compound, the TGI (CAKI-1 renal) was > 100 µM, the GI50 (EKVX NSCLC) was > 100 µM and the TGI (EKVX NSCLC) was > 100 µM. For the same compound, the GI50 (NCI-H23 lung) was > 100 µM, the TGI (NCI-H23 lung) was > 100 µM and the GI50 (UO-31 renal) was > 100 µM. The TGI (UO-31 renal) was > 100 µM, the GI50 (SW-620 colon) was 92 µM and the TGI (SW-620 colon) was > 100 µM. For the same compound, the GI50 (OVCAR-3 ovarian) was > 100 µM, the TGI (OVCAR-3 ovarian) was > 100 µM and the GI50 (OVCAR-4 ovarian) was > 100 µM. For the same compound, the TGI (OVCAR-4 ovarian) was > 100 µM, the GI50 (HT29 colon) was 68.4 µM and the TGI (HT29 colon) was > 100 µM. The GI50 (NCI-H522 lung) was > 100 µM, the TGI (NCI-H522 lung) was > 100 µM and the GI50 (U251 glioblastoma) was 87.8 µM. The TGI (U251 glioblastoma) was > 100 µM, the GI50 (OVCAR-5 ovarian) was > 100 µM and the TGI (OVCAR-5 ovarian) was > 100 µM. For the same compound, the GI50 (SK-OV-3 ovarian) was > 100 µM, the TGI (SK-OV-3 ovarian) was > 100 µM and the GI50 (SK-MEL-5 melanoma) was > 100 µM. The TGI (SK-MEL-5 melanoma) was > 100 µM, the GI50 (NCI-H460 NSCLC) was > 100 µM and the TGI (NCI-H460 NSCLC) was > 100 µM. The GI50 (HL-60(TB) leukemia) was 64 µM, the TGI (HL-60(TB) leukemia) was > 100 µM and the GI50 (HCC-2998 colon) was 85.3 µM. The TGI (HCC-2998 colon) was > 100 µM, the GI50 (M14 melanoma) was > 100 µM and the TGI (M14 melanoma) was > 100 µM. The GI50 (HCT-116 colon) was > 100 µM, the TGI (HCT-116 colon) was > 100 µM and the GI50 (A549 NSCLC) was > 100 µM. The TGI (A549 NSCLC) was > 100 µM, the GI50 (NCI-H322M lung) was > 100 µM and the TGI (NCI-H322M lung) was > 100 µM. For the same compound, the GI50 (MALME-3M melanoma) was > 100 µM, the TGI (MALME-3M melanoma) was > 100 µM and the GI50 (COLO 205 colon) was > 100 µM. The TGI (COLO 205 colon) was > 100 µM, the GI50 (SK-MEL-2 melanoma) was > 100 µM and the TGI (SK-MEL-2 melanoma) was > 100 µM. The GI50 (NCI/ADR-RES ovarian) was > 100 µM, the TGI (NCI/ADR-RES ovarian) was > 100 µM and the GI50 (RPMI-8226 leukemia) was 88.4 µM. For the same compound, the TGI (RPMI-8226 leukemia) was > 100 µM, the GI50 (SF-295 CNS) was 77.8 µM and the TGI (SF-295 CNS) was > 100 µM. The GI50 (MCF7 breast) was 60.3 µM, the TGI (MCF7 breast) was > 100 µM and the GI50 (MDA-MB-231 breast) was > 100 µM. For the same compound, the TGI (MDA-MB-231 breast) was > 100 µM, the GI50 (T-47D breast) was 99.3 µM and the TGI (T-47D breast) was > 100 µM. For the same compound, the GI50 (IGROV1 ovarian) was 80 µM, the TGI (IGROV1 ovarian) was > 100 µM and the GI50 (PC-3 prostate) was > 100 µM. For the same compound, the TGI (PC-3 prostate) was > 100 µM, the GI50 (HOP-92 NSCLC) was 75.8 µM and the TGI (HOP-92 NSCLC) was > 100 µM. For the same compound, the GI50 (RXF 393 renal) was 40.9 µM, the TGI (RXF 393 renal) was > 100 µM and the GI50 (SF-268 CNS) was 69.7 µM. The TGI (SF-268 CNS) was > 100 µM, the GI50 (MOLT-4 leukemia) was 50.7 µM and the TGI (MOLT-4 leukemia) was > 100 µM. For the same compound, the GI50 (DU-145 prostate) was > 100 µM, the TGI (DU-145 prostate) was > 100 µM and the GI50 (CCRF-CEM leukemia) was > 100 µM. The TGI (CCRF-CEM leukemia) was > 100 µM, the GI50 ([…]-0 renal) was > 100 µM and the TGI (786-0 renal) was > 100 µM. For the same compound, the GI50 (MDA-MB-468 breast) was 31 µM, the TGI (MDA-MB-468 breast) was > 100 µM and the GI50 (LOX IMVI melanoma) was > 100 µM. For the same compound, the TGI (LOX IMVI melanoma) was > 100 µM, the GI50 (MDA-MB-435 melanoma) was > 100 µM and the TGI (MDA-MB-435 melanoma) was > 100 µM. For the same compound, the GI50 (A498 renal) was > 100 µM, the TGI (A498 renal) was > 100 µM and the GI50 (HS 578T breast) was 38.5 µM. For the same compound, the TGI (HS 578T breast) was > 100 µM.
